One test addresses T1, endogenous CETP from serum (Homo sapiens, UniProt P11597).
T1 construct: yielding a concentration of approximately 15 nM endogenous CETP in the assay; from tissue; host or cells: human serum (95% of the assay volume)
T1 sequence (P11597 18-493): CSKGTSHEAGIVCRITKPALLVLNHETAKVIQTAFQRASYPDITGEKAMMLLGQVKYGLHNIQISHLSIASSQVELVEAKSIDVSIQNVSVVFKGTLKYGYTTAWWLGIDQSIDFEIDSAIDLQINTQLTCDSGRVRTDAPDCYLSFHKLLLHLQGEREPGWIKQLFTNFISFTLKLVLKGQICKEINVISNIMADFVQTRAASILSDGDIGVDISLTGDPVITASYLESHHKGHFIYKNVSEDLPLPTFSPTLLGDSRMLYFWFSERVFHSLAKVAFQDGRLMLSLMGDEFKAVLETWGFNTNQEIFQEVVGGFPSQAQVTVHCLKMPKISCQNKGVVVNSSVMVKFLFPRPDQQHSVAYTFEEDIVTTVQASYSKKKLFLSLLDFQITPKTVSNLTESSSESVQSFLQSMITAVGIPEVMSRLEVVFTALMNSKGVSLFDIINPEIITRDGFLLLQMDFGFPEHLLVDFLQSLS
Nature of the test: RTA assay in 95% human serum (95% RTA), CETP-catalyzed CE and TG transfer. To be noted: 95% human serum, endogenous CETP; read-out: RTA (95% HS). The class given is biochemical. As for the experimental part:
Reagents and sources are: [3H] cholesteryl oleate (GE #TRK.886), [3H] Triolein (Perkin-Elmer NET-431), Butylated hydroxyl toluene (Aldrich, #D4740-4), DOPC (Sigma, #P6354), Sodium Bromide (Fisher scientific #S255-500), PEG 8000 (Fisher, #BP233-1), and human HDL (Intracel Corp #RP-036).
Both assays measure the transfer of [3H] cholesteryl oleate or [3H] triolein from exogenous LDL to HDL.
Radiolabeled donor particles are generated by first combining 100 μl of 200 μM butylated hydroxyl toluene in CHCl3, 216 μL of 21.57 mM DOPC in EtOH, and either 500 μCi [3H]-triolein (Perkin Elmer #NET-431) or 500 μCi [3H]-cholesteryl oleate (GE #TRK886) in a glass tube. Reagents are mixed, dried under nitrogen, and then resuspended in 2 mL of 50 mM Tris, 27 μM EDTA at pH 7.4. After a brief vortex, the solution is sonicated until clear and mixed with 20 mL of fresh human serum. The mixture is incubated overnight at 37° C. The [3H] labeled LDL substrate is separated at 1.063 g/ml density by sequential ultracentrifugal flotation in NaBr according to the method of Havel, Eder, et al., 1955, and Chapman, Goldstein, et al., 1981. Once isolated the particles are dialyzed 3× in CETP buffer (50 mM Tris, pH 7.4, 100 mM NaCl, 1 mM EDTA). Human HDL is purchased from Intracel and used as the acceptor particles.
Transfer assays are performed in a 96-well v-bottom polypropylene plate. […] 1 μL of each test compound diluted in DMSO is added to 47 μL of assay cocktail per well and incubated at 37° C. for 1 hour. To initiate the transfer reaction, 2 μL radiolabeled LDL is added. After an additional 60 min of incubation at 37° C., the transfer action is terminated by precipitation of LDL with an equal volume of 20% W/V PEG 8000. The plates are centrifuged at 2000 rpm for 30 minutes at 4° C. A 40 μL aliquot of the HDL-containing supernatant is transferred to a Packard Optiplate™ with 200 μL of MicroScint™ 20. After mixing, plates are counted by liquid scintillation. Counts present in the supernatant for blanks (wells containing only HDL acceptor, CETP buffer and DMSO) are subtracted from those containing test compounds and used to correct for non-specific transfer.
For the transfer assay using endogenous CETP from serum (95% RTA), the same procedure is used except that human serum is added such that a final concentration of serum of 95% of the total assay volume is achieved, yielding a concentration of approximately 15 nM endogenous CETP in the assay. This is then combined with HDL and CETP buffer and the reaction proceeds as above and is terminated as described.
Comparison of the counts of samples with inhibitors to an uninhibited (DMSO only) positive control yield a percent inhibition. A plot of percent inhibition vs. log of inhibitor concentration, fit to a Sigmoidal 4 parameter equation is used to calculate IC50.
Starting materials are commercially available or are made using known procedures or as shown below. The examples may be synthesized using the general schemes provided below. The data reported for the examples below were obtained using the RTA assay in 95% human serum. […] When compounds of Formula I are mentioned herein, such compounds include compounds defined generically by Formula I and also the specific examples disclosed herein.
On to `COc1ccc(-c2ccc(C(=O)O)cc2C)cc1-c1ccc(C(F)(F)F)cc1[C@@H]1CC[C@H]2[C@@H](c3cc(C(F)(F)F)cc(C(F)(F)F)c3)CC(=O)N12` [Example 2, 2″-((3S,7R,7aS)-7-(3,5-bis(trifluoromethyl)phenyl)-5-oxohexahydro-1H-pyrrolizin-3-yl)-4′-methoxy-2-methyl-4″-(trifluoromethyl)-[1,1′:3′,1″-terphenyl]-4-carboxylic acid], for which the IC50 worked out at 1.83 µM.

The test is the same for the next values; noted with them: RTA assay in 95% human serum; read-out: IC50.
For `COc1ncc(-c2c(C)cc(C(=O)O)cc2C)cc1-c1ccc(C(F)(F)F)cc1[C@@H]1CC[C@H]2[C@@H](c3cc(C(F)(F)F)cc(C(F)(F)F)c3)CC(=O)N12` [Example 14, 4-{5-[2-{(3S,7R,7aS)-7-[3,5-bis(trifluoromethyl)phenyl]-5-oxohexahydro-1H-pyrrolizin-3-yl}-4-(trifluoromethyl)phenyl]-6-methoxypyridin-3-yl}-3,5-dimethylbenzoic acid], the IC50 was 0.321 µM.

In the case of `COc1ccc([C@H]2CC[C@H](C(=O)O)CC2)cc1-c1ccc(C(F)(F)F)cc1[C@@H]1CC[C@H]2[C@@H](c3cc(F)cc(C(F)(F)F)c3)SC(=O)N12` [Example 12, trans-4-[2′-{(1R,5S,7aS)-1-[3-fluoro-5-(trifluoromethyl)phenyl]-3-oxotetrahydro-1H-pyrrolo[1,2-c][1,3]thiazol-5-yl}-6-methoxy-4′-(trifluoromethyl)biphenyl-3-yl]cyclohexanecarboxylic acid], the IC50 amounted to 1.5 µM.

With `COc1ncc(-c2ccc(C(=O)O)cc2C)cc1-c1ccc(C(F)(F)F)cc1[C@@H]1CC[C@H]2[C@@H](c3cc(C(F)(F)F)cc(C(F)(F)F)c3)SC(=O)N12` [Example 4, 4-{5-[2-{(1R,5S,7aS)-1-[3,5-bis(trifluoromethyl)phenyl]-3-oxotetrahydro-1H-pyrrolo[1,2-c][1,3]thiazol-5-yl}-4-(trifluoromethyl)phenyl]-6-methoxypyridin-3-yl}-3-methylbenzoic acid], the IC50 was determined as 0.559 µM.

As for `COc1ccc(-c2ccc(C(=O)O)cc2C)cc1-c1ccc(C(F)(F)F)cc1[C@@H]1CC[C@H]2[C@@H](c3cc(F)cc(C(F)(F)F)c3)CC(=O)N12` [Example 20], the IC50 was determined as 4.73 µM.

With `COc1ncc(-c2c(C)cc(C(=O)O)cc2C)cc1-c1ccc(C(F)(F)F)cc1[C@@H]1CC[C@H]2[C@@H](c3cc(F)cc(C(F)(F)F)c3)CC(=O)N12` [Example 17, 4-{5-[2-{(3S,7R,7aS)-7-[3-fluoro-5-(trifluoromethyl)phenyl]-5-oxohexahydro-1H-pyrrolizin-3-yl}-4-(trifluoromethyl)phenyl]-6-methoxypyridin-3-yl}-3,5-dimethylbenzoic acid], the IC50 is 0.328 µM.

Regarding `COc1cc(F)c(C(C)C)cc1-c1ccc(C(F)(F)F)cc1[C@@H]1CC[C@H]2[C@@H](c3ccnc(C(F)(F)F)c3)SC(=O)N12` [Example 11, (1R,5S,7aS)-5-[4′-fluoro-2′-methoxy-5′-(1-methylethyl)-4-(trifluoromethyl)biphenyl-2-yl]-1-[2-(trifluoromethyl)pyridin-4-yl]tetrahydro-1H-pyrrolo[1,2-c][1,3]thiazol-3-one], the IC50 stood at 2.52 µM.

As to `COc1cc(F)c(C(C)C)cc1-c1ccc(C(F)(F)F)cc1[C@@H]1CC[C@H]2[C@@H](c3cc(F)cc(C(F)(F)F)c3)CC(=O)N12` [Example 18, (1R,5S,7aS)-5-[4′-fluoro-2′-methoxy-5′-(1-methylethyl)-4-(trifluoromethyl)biphenyl-2-yl]-1-[3-fluoro-5-(trifluoromethyl)phenyl]hexahydro-3H-pyrrolizin-3-one], the IC50 turned out to be 2.69 µM.

Regarding `COc1ncc(-c2ccc(C(=O)O)cc2C)cc1-c1ccc(C(F)(F)F)cc1[C@@H]1CC[C@H]2[C@@H](c3ccnc(C(F)(F)F)c3)SC(=O)N12` [Example 10, 4-{6-methoxy-5-[2-{(1R,5S,7aS)-3-oxo-1-[2-(trifluoromethyl)pyridin-4-yl]tetrahydro-1H-pyrrolo[1,2-c][1,3]thiazol-5-yl}-4-(trifluoromethyl)phenyl]pyridin-3-yl}-3-methylbenzoic acid], the IC50 came out at 3.94 µM.

With `COc1ccc(-c2ccc(C(=O)O)cc2C)cc1-c1ccc(C(F)(F)F)cc1[C@@H]1CC[C@H]2[C@@H](c3cc(F)cc(C(F)(F)F)c3)SC(=O)N12` [Example 6, 2″-{(1R,5S,7aS)-1-[3-flluoro-5-(trifluoromethyl)phenyl]-3-oxotetrahydro-1H-pyrrolo[1,2-c][1,3]thiazol-5-yl}-4′-methoxy-2-methyl-4″-(trifluoromethyl)-1,1′:3′,1″-terphenyl-4-carboxylic acid], the IC50 is 0.926 µM.

Regarding `COc1ncc(-c2ccc(C(=O)O)cc2C)cc1-c1ccc(C(F)(F)F)cc1[C@@H]1CC[C@H]2[C@@H](c3cc(F)cc(C(F)(F)F)c3)CC(=O)N12` [Example 19, 4-{5-[2-{(3S,7R,7aS)-7-[3-fluoro-5-(trifluoromethyl)phenyl]-5-oxohexahydro-1H-pyrrolizin-3-yl}-4-(trifluoromethyl)phenyl]-6-methoxypyridin-3-yl}-3-methylbenzoic acid], the IC50 is 2.88 µM.

As to `COc1ncc(-c2ccc(C(=O)O)cc2C)cc1-c1ccc(C(F)(F)F)cc1[C@@H]1CC[C@H]2[C@@H](c3cc(F)cc(C(F)(F)F)c3)SC(=O)N12` [Example 5, 4-{5-[2-{(1R,5S,7aS)-1-[3-fluoro-5-(trifluoromethyl)phenyl]-3-oxotetrahydro-1H-pyrrolo[1,2-c][1,3]thiazol-5-yl}-4-(trifluoromethyl)phenyl]-6-methoxypyridin-3-yl}-3-methylbenzoic acid], the IC50 is 0.285 µM.

In the case of `COc1cc(F)c(C(C)C)cc1-c1ccc(C(F)(F)F)cc1[C@@H]1CC[C@H]2[C@@H](c3cc(F)cc(C(F)(F)F)c3)SC(=O)N12` [Example 7, (1R,5S,7aS)-5-[4′-fluoro-2′-methoxy-5′-(1-methylethyl)-4-(trifluoromethyl)biphenyl-2-yl]-1-[3-fluoro-5-(trifluoromethyl)phenyl]tetrahydro-1H-pyrrolo[1,2-c][1,3]thiazol-3-one], the IC50 stood at 2 µM.

On to `COc1ncc(-c2c(C)cc(C(=O)O)cc2C)cc1-c1ccc(C(F)(F)F)cc1[C@@H]1CC[C@H]2[C@@H](c3ccnc(C(F)(F)F)c3)CC(=O)N12` [Example 21, 4-{6-methoxy-5-[2-{(3S,7R,7aS)-5-oxo-7-[2-(trifluoromethyl)pyridin-4-yl]hexahydro-1H-pyrrolizin-3-yl}-4-(trifluoromethyl)phenyl]pyridin-3-yl}-3,5-dimethylbenzoic acid], for which the IC50 turned out to be 2.9 µM.

For the compound `COc1ncc(-c2c(C)cc(C(=O)O)cc2C)cc1-c1ccc(C(F)(F)F)cc1[C@@H]1CC[C@H]2[C@@H](c3ccnc(C(F)(F)F)c3)SC(=O)N12` [Example 8, 4-{6-methoxy-5-[2-{(1R,5S,7aS)-3-oxo-1-[2-(trifluoromethyl)pyridin-4-yl]tetrahydro-1H-pyrrolo[1,2-c][1,3]thiazol-5-yl}-4-(trifluoromethyl)phenyl]pyridin-3-yl}-3,5-dimethylbenzoic acid], the IC50 amounted to 0.143 µM.

(Values after patent US20180230166A1 (Merck Sharp & Dohme Corp., priority 2015, published 2018).)
